Reference: PMC9563442, “Purification, Characterization, and Immobilization of a Novel Protease-Resistant α-Galactosidase from Oudemansiella radicata and Its Application in Degradation of Raffinose Family Oligosaccharides from Soymilk” (Foods, 2022)
pKi: −log10 of the molar value.

Experiments:
Format in all cases: biochemical, Hymenopellis radicata
[1] = target: T1, ORG (O. radicata α-galactosidase); experiment: pNPG hydrolysis, absorbance at […] nm, Dixon plot; settings: mixed-type inhibition; pNPG 1.5-3 mM as substrate, NaAc-HAc pH 4.6, 40 °C
T1 construct: native, purified from commercial dry fruiting bodies; 74 kDa by gel filtration, SDS-PAGE bands 50 and 24 kDa

[2] = test system: T1, ORG (O. radicata α-galactosidase); experiment: reducing sugar release (DNS method), Michaelis-Menten plot; settings: free enzyme, 50 °C
Text: reducing sugar release (DNS method), Michaelis-Menten plot on ORG (O. radicata α-galactosidase)

[3] = test system: T1, ORG (O. radicata α-galactosidase); experiment: p-nitrophenol release, absorbance at […] nm, Michaelis-Menten plot; settings: free enzyme; pNPG 0.5-4 mM, NaAc-HAc pH 4.6, 40 °C

Q: With OC[C@H]1OC(O)[C@H](O)[C@@H](O)[C@H]1O (some centres unmarked) [galactose] as the compound, how does the pKi [1] read?
A: 2.23

Q: Which Km ([2]; raffinose 2-40 mM, read-out: Raffinose / Km) does the source give for OC[C@H]1O[C@H](OC[C@H]2O[C@H](O[C@]3(CO)O[C@H](CO)[C@@H](O)[C@@H]3O)[C@H](O)[C@@H](O)[C@@H]2O)[C@H](O)[C@@H](O)[C@H]1O [raffinose] here?
A: 16.5 mM

Q: With OC[C@H]1O[C@H](OC[C@H]2OC(O)[C@H](O)[C@@H](O)[C@@H]2O)[C@H](O)[C@@H](O)[C@H]1O (some centres unmarked) [melibiose] as the compound, how does the pKi [1] read?
A: 2.73

Q: Which Km [3] does the source give for O=[N+]([O-])c1ccc(O[C@H]2O[C@H](CO)[C@H](O)[C@H](O)[C@H]2O)cc1 [4-nitrophenyl-α-D-galactopyranoside] here?
A: 0.58 mM

Q: How did the Km ([2]; stachyose 2-40 mM, read-out: Stachyose / Km) turn out when OC[C@H]1O[C@H](OC[C@H]2O[C@H](OC[C@H]3O[C@H](O[C@]4(CO)O[C@H](CO)[C@@H](O)[C@@H]4O)[C@H](O)[C@@H](O)[C@@H]3O)[C@H](O)[C@@H](O)[C@H]2O)[C@H](O)[C@@H](O)[C@H]1O [stachyose] was run?
A: 19 mM
